# Test results: US8115197B2, “Organic semiconductor material, organic semiconductor thin film and organic semiconductor device” (Sony Corporation, priority 2005, dated 2012)
# Experiment: dissolution into hexane solution at room temperature
# Assay type: physicochemical
# Procedure: Also, experiments were carried out in which the polyacene derivative of example 1, the polyacene derivative of example 2, the polyacene derivative of example 3 and the polyacene derivative of example 4 were respectively dissolved into hexane solution at room temperature. […] Also, the polyacene derivative of the inventive example 4 of which number of the substituents is less than that of the polyacene derivative of example 2 by four was dissolved into the hexane solution.
row,solubility in hexane solution,SMILES
1,dissolved,"CCCCc1c(C(=O)OC)c(C(=O)OC)c(CCCC)c2cc3c(CCCC)c4cc5c(CC)c(CC)c(CC)c(CC)c5cc4c(CCCC)c3cc12 [example 1, 2,3-bis methoxycarbonyl-1,4,6,13-tetrabutyl-8,9,10,11-tetraethyl pentacene]"
2,hardly dissolved,"CCc1c(CC)c(CC)c2cc3c(CC)c4cc5c(CC)c(C(=O)OC)c(C(=O)OC)c(CC)c5cc4c(CC)c3cc2c1CC [example 2, 2,3-bis methoxycarbonyl-1,4,6,8,9,10,11 13-octaethyl pentacene]"
3,dissolved,"CCCc1c(C(=O)OC)c(C(=O)OC)c(CCC)c2cc3c(CCC)c4cc5c(CC)c(CC)c(CC)c(CC)c5cc4c(CCC)c3cc12 [example 3, 2,3-bis methoxycarbonyl-8,9,10,11-tetra ethyl-1,4,6,13-tetra propyl pentacene]"
4,dissolved,"CCCCc1c(C(=O)OC)c(C(=O)OC)c(CCCC)c2cc3c(CCCC)c4cc5ccccc5cc4c(CCCC)c3cc12 [example 4, 2,3-bis methoxycarbonyl-1,4,6,13-tetrabuyl pentacene]"
